system: not given; test: not given; conditions: not given

Structure (SMILES) | melting point
CCc1cc(C(=O)N2CCCCC[C@H]2C)nc2cc(-c3ccc4ccc(C(=O)O)cc4c3F)nn12 [Compound F36] | 274.48 °C
C[C@@H]1CCCCCN1C(=O)c1cc(C2CCC2)n2nc(-c3ccc4c(c3F)OCC(C(=O)O)=C4)cc2n1 [Compound F39] | 230.94 °C
CCc1cc(C(=O)N2CCCCC[C@H]2C)nc2cc(-c3ccc4c(C(=O)O)coc4c3F)nn12 [Compound F40] | 213.87 °C
CC(C)Cc1cc(C(=O)N2CCCCC[C@H]2C)nc2cc(-c3ccc(-c4ccc(C(=O)O)cn4)cc3F)nn12 [Compound F41] | 197.2 °C
CCc1cc(C(=O)N2CCCCCC2C)nc2cc(-c3ccc(B(O)O)cc3F)nn12 (stereo not drawn) [Compound G1] | 195 to 200 °C
CNc1cc(C(=O)N2CCCCCC2C)nc2cc(-c3ccc(C#N)cc3F)nn12 (stereo not drawn) [Compound H1] | 219 to 220 °C
CC1CCCCCN1C(=O)c1cc(N(C)C)n2nc(-c3ccc(C#N)cc3F)cc2n1 (stereo not drawn) [Compound H2] | 194 to 195 °C
CCc1cc(C(=O)N2CCCCC[C@H]2C)nc2cc(-c3ccc(C#N)cc3F)nn12 [Compound H4] | 96 °C
CCc1cc(C(=O)N2CCCCCC2C)nc2cc(-c3ccc(C#N)cc3F)nn12 (stereo not drawn) [Compound H5] | 95 °C
CCc1cc(C(=O)N2CCCCC[C@H]2C)nc2cc(-c3ccc(C(N)=O)cc3F)nn12 [Compound I1] | 180 °C
CCc1cc(C(=O)N2CCCCCC2C)nc2cc(-c3c(F)cc(C(N)=O)cc3F)nn12 (stereo not drawn) [Compound I27] | 160 to 165 °C
CCc1cc(C(=O)N2CCCCCC2C)nc2cc(-c3ccc(C(N)=O)nc3)nn12 (stereo not drawn) [Compound I28] | 174 to 175 °C
CNc1cc(C(=O)N2CCCCCC2C)nc2cc(-c3ccc(C(N)=O)cc3F)nn12 (stereo not drawn) [Compound I29] | 179 to 181 °C
CC1CCCCCN1C(=O)c1cc(N(C)C)n2nc(-c3ccc(C(N)=O)cc3F)cc2n1 (stereo not drawn) [Compound I30] | 215 to 216 °C
CC1CCCCCN1C(=O)c1cc(C(F)(F)F)n2nc(-c3ccc(C(N)=O)cc3F)cc2n1 (stereo not drawn) [Compound I31] | 238 to 240 °C
CCc1cc(C(=O)N2CCn3cccc3C2C)nc2cc(-c3ccc(C(N)=O)cc3F)nn12 (stereo not drawn) [Compound I35] | 242 °C
CCc1cc(C(=O)N2CCc3c([nH]c4ccccc34)C2C)nc2cc(-c3ccc(C(N)=O)cc3F)nn12 (stereo not drawn) [Compound I38] | 205 to 210 °C
CCc1cc(C(=O)N2CCCCCC2C)nc2c(F)c(-c3ccc(C(N)=O)cc3F)nn12 (stereo not drawn) [Compound J1] | 173 °C
CCc1cc(C(=O)N2CCCCCC2C)nc2c(F)c(-c3ccc(C(N)=O)cc3)nn12 (stereo not drawn) [Compound J2] | 195 to 200 °C
CCc1cc(C(=O)N2CCc3ccccc3C2C)nc2cc(-c3ccc(C(=O)O)cc3F)nn12 (stereo not drawn) [Compound K1] | 165 to 170 °C
CCc1cc(C(=O)N2CCCCCC2C)nc2cc(-c3ccc(C(=O)O)cc3F)nn12 (stereo not drawn) [Compound K2] | 210 °C
CCc1cc(C(=O)N2Cc3ccccc3CC2C)nc2cc(-c3ccc(C(=O)O)cc3F)nn12 (stereo not drawn) [Compound K3] | 150 to 155 °C
CCc1cc(C(=O)N2CCCCCCC2C)nc2cc(-c3ccc(C(=O)O)cc3F)nn12 (stereo not drawn) [Compound K4] | 133 to 134 °C
CCc1cc(C(=O)N2CCCCC[C@H]2C)nc2cc(-c3ccc(C(=O)O)cc3F)nn12 [Compound K5] | 148 °C
CCc1cc(C(=O)N2CC(C)(C)c3ccccc3C2C)nc2cc(-c3ccc(C(=O)O)cc3F)nn12 (stereo not drawn) [Compound K6] | 235 to 240 °C

system: rgRSV224 virus; test: Antiviral activity: inhibition of rgRSV224 (GFP-expressing RSV) replication in HeLa cells, GFP expression read-out; format: cell-based, respiratory syncytial virus (RSV); conditions: human respiratory syncytial virus, HeLa, read-out: RSV HELA pEC50, rgRSV224 virus (MOI=1) in HeLa cells, GFP read-out (converted)
Outline: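 HeLa cells (3,000/well) were infected with GFP-expressing rgRSV224 (MOI=1) in the presence of 9 serial 4-fold compound dilutions (0.05% DMSO) and incubated at 37° C, 5% CO2. After three days, GFP expression was measured by laser microscopy. EC50 is the concentration giving 50% inhibition of GFP expression.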

Structure (SMILES) | EC50
CCc1cc(C(=O)N2CCCCC[C@H]2C)nc2cc(-c3ccc4ccc(C(=O)O)cc4c3F)nn12 [Compound F36] | 46.8 nM
C[C@@H]1CCCCCN1C(=O)c1cc(C2CCC2)n2nc(-c3ccc4c(c3F)OCC(C(=O)O)=C4)cc2n1 [Compound F39] | 38.9 nM
CCc1cc(C(=O)N2CCCCC[C@H]2C)nc2cc(-c3ccc4c(C(=O)O)coc4c3F)nn12 [Compound F40] | 132 nM
CC(C)Cc1cc(C(=O)N2CCCCC[C@H]2C)nc2cc(-c3ccc(-c4ccc(C(=O)O)cn4)cc3F)nn12 [Compound F41] | 36.3 nM
CCc1cc(C(=O)N2CCCCCC2C)nc2cc(-c3ccc(B(O)O)cc3F)nn12 (stereo not drawn) [Compound G1] | 282 nM
CNc1cc(C(=O)N2CCCCCC2C)nc2cc(-c3ccc(C#N)cc3F)nn12 (stereo not drawn) [Compound H1] | 562 nM
CC1CCCCCN1C(=O)c1cc(N(C)C)n2nc(-c3ccc(C#N)cc3F)cc2n1 (stereo not drawn) [Compound H2] | 912 nM
CCc1cc(C(=O)N2CCCCC[C@H]2C)nc2cc(-c3ccc(C#N)cc3F)nn12 [Compound H4] | 661 nM
CCc1cc(C(=O)N2CCCCCC2C)nc2cc(-c3ccc(C#N)cc3F)nn12 (stereo not drawn) [Compound H5] | 813 nM
CCc1cc(C(=O)N2CCCCC[C@H]2C)nc2cc(-c3ccc(C(N)=O)cc3F)nn12 [Compound I1] | 53.7 nM
CCc1cc(C(=O)N2CCCCCC2C)nc2cc(-c3c(F)cc(C(N)=O)cc3F)nn12 (stereo not drawn) [Compound I27] | 251 nM
CCc1cc(C(=O)N2CCCCCC2C)nc2cc(-c3ccc(C(N)=O)nc3)nn12 (stereo not drawn) [Compound I28] | 1780 nM
CNc1cc(C(=O)N2CCCCCC2C)nc2cc(-c3ccc(C(N)=O)cc3F)nn12 (stereo not drawn) [Compound I29] | 295 nM
CC1CCCCCN1C(=O)c1cc(N(C)C)n2nc(-c3ccc(C(N)=O)cc3F)cc2n1 (stereo not drawn) [Compound I30] | 240 nM
CC1CCCCCN1C(=O)c1cc(C(F)(F)F)n2nc(-c3ccc(C(N)=O)cc3F)cc2n1 (stereo not drawn) [Compound I31] | 141 nM
CCc1cc(C(=O)N2CCn3cccc3C2C)nc2cc(-c3ccc(C(N)=O)cc3F)nn12 (stereo not drawn) [Compound I35] | 43.7 nM
CCc1cc(C(=O)N2CCc3c([nH]c4ccccc34)C2C)nc2cc(-c3ccc(C(N)=O)cc3F)nn12 (stereo not drawn) [Compound I38] | 1780 nM
CCc1cc(C(=O)N2CCCCCC2C)nc2c(F)c(-c3ccc(C(N)=O)cc3F)nn12 (stereo not drawn) [Compound J1] | 148 nM
CCc1cc(C(=O)N2CCCCCC2C)nc2c(F)c(-c3ccc(C(N)=O)cc3)nn12 (stereo not drawn) [Compound J2] | 263 nM
CCc1cc(C(=O)N2CCc3ccccc3C2C)nc2cc(-c3ccc(C(=O)O)cc3F)nn12 (stereo not drawn) [Compound K1] | 158 nM
CCc1cc(C(=O)N2CCCCCC2C)nc2cc(-c3ccc(C(=O)O)cc3F)nn12 (stereo not drawn) [Compound K2] | 562 nM
CCc1cc(C(=O)N2Cc3ccccc3CC2C)nc2cc(-c3ccc(C(=O)O)cc3F)nn12 (stereo not drawn) [Compound K3] | 1100 nM
CCc1cc(C(=O)N2CCCCCCC2C)nc2cc(-c3ccc(C(=O)O)cc3F)nn12 (stereo not drawn) [Compound K4] | 275 nM
CCc1cc(C(=O)N2CCCCC[C@H]2C)nc2cc(-c3ccc(C(=O)O)cc3F)nn12 [Compound K5] | 309 nM
CCc1cc(C(=O)N2CC(C)(C)c3ccccc3C2C)nc2cc(-c3ccc(C(=O)O)cc3F)nn12 (stereo not drawn) [Compound K6] | 2400 nM

system: not listed separately; test: Cytotoxicity in HeLa cells, ATP content measured with the ATPlite kit; format: cell-based; conditions: human, TOX HELA pCC50

Structure (SMILES) | CC50 at 3 days
CCc1cc(C(=O)N2CCCCC[C@H]2C)nc2cc(-c3ccc4ccc(C(=O)O)cc4c3F)nn12 [Compound F36] | > 100000 nM
C[C@@H]1CCCCCN1C(=O)c1cc(C2CCC2)n2nc(-c3ccc4c(c3F)OCC(C(=O)O)=C4)cc2n1 [Compound F39] | 44700 nM
CCc1cc(C(=O)N2CCCCC[C@H]2C)nc2cc(-c3ccc4c(C(=O)O)coc4c3F)nn12 [Compound F40] | 52500 nM
CC(C)Cc1cc(C(=O)N2CCCCC[C@H]2C)nc2cc(-c3ccc(-c4ccc(C(=O)O)cn4)cc3F)nn12 [Compound F41] | 22400 nM
CCc1cc(C(=O)N2CCCCCC2C)nc2cc(-c3ccc(B(O)O)cc3F)nn12 (stereo not drawn) [Compound G1] | > 25100 nM
CNc1cc(C(=O)N2CCCCCC2C)nc2cc(-c3ccc(C#N)cc3F)nn12 (stereo not drawn) [Compound H1] | > 25100 nM
CC1CCCCCN1C(=O)c1cc(N(C)C)n2nc(-c3ccc(C#N)cc3F)cc2n1 (stereo not drawn) [Compound H2] | > 25100 nM
CCc1cc(C(=O)N2CCCCC[C@H]2C)nc2cc(-c3ccc(C#N)cc3F)nn12 [Compound H4] | > 25100 nM
CCc1cc(C(=O)N2CCCCCC2C)nc2cc(-c3ccc(C#N)cc3F)nn12 (stereo not drawn) [Compound H5] | > 25100 nM
CCc1cc(C(=O)N2CCCCC[C@H]2C)nc2cc(-c3ccc(C(N)=O)cc3F)nn12 [Compound I1] | > 25100 nM
CCc1cc(C(=O)N2CCCCCC2C)nc2cc(-c3c(F)cc(C(N)=O)cc3F)nn12 (stereo not drawn) [Compound I27] | > 25100 nM
CCc1cc(C(=O)N2CCCCCC2C)nc2cc(-c3ccc(C(N)=O)nc3)nn12 (stereo not drawn) [Compound I28] | > 25100 nM
CNc1cc(C(=O)N2CCCCCC2C)nc2cc(-c3ccc(C(N)=O)cc3F)nn12 (stereo not drawn) [Compound I29] | > 25100 nM
CC1CCCCCN1C(=O)c1cc(N(C)C)n2nc(-c3ccc(C(N)=O)cc3F)cc2n1 (stereo not drawn) [Compound I30] | > 25100 nM
CC1CCCCCN1C(=O)c1cc(C(F)(F)F)n2nc(-c3ccc(C(N)=O)cc3F)cc2n1 (stereo not drawn) [Compound I31] | > 25100 nM
CCc1cc(C(=O)N2CCn3cccc3C2C)nc2cc(-c3ccc(C(N)=O)cc3F)nn12 (stereo not drawn) [Compound I35] | > 25100 nM
CCc1cc(C(=O)N2CCc3c([nH]c4ccccc34)C2C)nc2cc(-c3ccc(C(N)=O)cc3F)nn12 (stereo not drawn) [Compound I38] | > 25100 nM
CCc1cc(C(=O)N2CCCCCC2C)nc2c(F)c(-c3ccc(C(N)=O)cc3F)nn12 (stereo not drawn) [Compound J1] | > 25100 nM
CCc1cc(C(=O)N2CCCCCC2C)nc2c(F)c(-c3ccc(C(N)=O)cc3)nn12 (stereo not drawn) [Compound J2] | > 25100 nM
CCc1cc(C(=O)N2CCc3ccccc3C2C)nc2cc(-c3ccc(C(=O)O)cc3F)nn12 (stereo not drawn) [Compound K1] | > 25100 nM
CCc1cc(C(=O)N2CCCCCC2C)nc2cc(-c3ccc(C(=O)O)cc3F)nn12 (stereo not drawn) [Compound K2] | > 25100 nM
CCc1cc(C(=O)N2Cc3ccccc3CC2C)nc2cc(-c3ccc(C(=O)O)cc3F)nn12 (stereo not drawn) [Compound K3] | > 25100 nM
CCc1cc(C(=O)N2CCCCCCC2C)nc2cc(-c3ccc(C(=O)O)cc3F)nn12 (stereo not drawn) [Compound K4] | > 25100 nM
CCc1cc(C(=O)N2CCCCC[C@H]2C)nc2cc(-c3ccc(C(=O)O)cc3F)nn12 [Compound K5] | > 25100 nM
CCc1cc(C(=O)N2CC(C)(C)c3ccccc3C2C)nc2cc(-c3ccc(C(=O)O)cc3F)nn12 (stereo not drawn) [Compound K6] | > 25100 nM

Reference: patent US11084826B2, “RSV antiviral pyrazolo- and triazolo-pyrimidine compounds” (Janssen Sciences Ireland Unlimited Company, priority 2015, dated 2021)
